The target in the assay is ALPK1 (Homo sapiens (Human), UniProt Q96QP1). Briefly: ALPK1 in vitro kinase assay (HTRF of TIFA phosphorylation). The assay is classed as biochemical. From the text:
In embodiments, a compound of Formula I, or a subembodiment described herein, is an inhibitor of ALPK1 as measured, for example, in an in vitro kinase assay, or an assay designed to measure the activation of downstream targets of ALPK1 pathway activation, for example NFkB transcriptional activation and the secretion of proinflammatory cytokines and chemokines, such as IL-8, which is also referred to as CXCL-8. In general, the computer program XL fit was used for data analysis, including non-linear regression analysis. The half maximal inhibitory concentration (IC50) was used as the measure of a compound's effectiveness in the assays. IC50 values were determined using the following logistic equation Y=min+(max−min)/(1+(X/IC50^−hillslpoe), where Y is the value at the compound concentration, X. The concentration response curve fitting was conducted using GraphPad Prism version 6.00 software.
ALPK1 kinase activity was measured in an in vitro assay using ADP-Heptose as the ALPK1 ligand and activator of its kinase activity and TIFA protein as the ALPK1 phosphorylation substrate. Since phosphorylated TIFA proteins oligomerize, Homogeneous Time-Resolved Fluorescence (HTRF) was used to measure protein:protein interaction between HA-tagged TIFA proteins as an indicator of TIFA phosphorylation.
In brief, dose-response studies were performed with HEK293 cells cultured in Dulbecco's Modified Eagle Medium (DMEM) supplemented 10% fetal bovine serum (FBS, Hyclone™) containing antibiotics (pen/strep, G418) in 384-well assay plates. Each well contained 0.1 mg TIFA, ALPK1 (2 nM final concentration in reaction mixture) and kinase buffer (100 mM of HEPES pH 7.4, 4 mM DTT, 40 mM MgCl2, 20 mM of β-Glycerol phosphate disodium salt, 0.4 mM of Na3VO4, 0.16 mg/mL). Titrations of the test compounds were prepared in dimethylsulphoxide (DMSO). The reaction was initiated by addition of ATP and ADP-Heptose.
For HTRF, samples were incubated with a Tb cryptate-labeled anti-HA antibody for capturing HA-tagged proteins according to the manufacturer's instructions (PerkinElmer™, CisBio™) and the fluorescence signal was quantified (Tecan Infinite F NANO+). HTRF signals were calculated as the HTRF ratio (ratio of fluorescence measured at 665 nm and 620 nm)×104 (thereby using the signal at 620 nm as an internal standard).
IC50 values were determined using 3- or 4-parameter logistic equation using GraphPad Prism version 6.00. The reference compound, A027, was used as a positive control for each plate.
For orientation: Time-resolved FRET reads energy transfer from a long-lived donor to a nearby acceptor.

The mark [1] stands for this setting: ALPK1 2 nM, TIFA substrate, ADP-Heptose activator, HTRF readout.

pIC50: −log10 of the molar value. Read-outs that look alike come from different tables or passages of the source.

ALPK1, sequence (Q96QP1 whole entry): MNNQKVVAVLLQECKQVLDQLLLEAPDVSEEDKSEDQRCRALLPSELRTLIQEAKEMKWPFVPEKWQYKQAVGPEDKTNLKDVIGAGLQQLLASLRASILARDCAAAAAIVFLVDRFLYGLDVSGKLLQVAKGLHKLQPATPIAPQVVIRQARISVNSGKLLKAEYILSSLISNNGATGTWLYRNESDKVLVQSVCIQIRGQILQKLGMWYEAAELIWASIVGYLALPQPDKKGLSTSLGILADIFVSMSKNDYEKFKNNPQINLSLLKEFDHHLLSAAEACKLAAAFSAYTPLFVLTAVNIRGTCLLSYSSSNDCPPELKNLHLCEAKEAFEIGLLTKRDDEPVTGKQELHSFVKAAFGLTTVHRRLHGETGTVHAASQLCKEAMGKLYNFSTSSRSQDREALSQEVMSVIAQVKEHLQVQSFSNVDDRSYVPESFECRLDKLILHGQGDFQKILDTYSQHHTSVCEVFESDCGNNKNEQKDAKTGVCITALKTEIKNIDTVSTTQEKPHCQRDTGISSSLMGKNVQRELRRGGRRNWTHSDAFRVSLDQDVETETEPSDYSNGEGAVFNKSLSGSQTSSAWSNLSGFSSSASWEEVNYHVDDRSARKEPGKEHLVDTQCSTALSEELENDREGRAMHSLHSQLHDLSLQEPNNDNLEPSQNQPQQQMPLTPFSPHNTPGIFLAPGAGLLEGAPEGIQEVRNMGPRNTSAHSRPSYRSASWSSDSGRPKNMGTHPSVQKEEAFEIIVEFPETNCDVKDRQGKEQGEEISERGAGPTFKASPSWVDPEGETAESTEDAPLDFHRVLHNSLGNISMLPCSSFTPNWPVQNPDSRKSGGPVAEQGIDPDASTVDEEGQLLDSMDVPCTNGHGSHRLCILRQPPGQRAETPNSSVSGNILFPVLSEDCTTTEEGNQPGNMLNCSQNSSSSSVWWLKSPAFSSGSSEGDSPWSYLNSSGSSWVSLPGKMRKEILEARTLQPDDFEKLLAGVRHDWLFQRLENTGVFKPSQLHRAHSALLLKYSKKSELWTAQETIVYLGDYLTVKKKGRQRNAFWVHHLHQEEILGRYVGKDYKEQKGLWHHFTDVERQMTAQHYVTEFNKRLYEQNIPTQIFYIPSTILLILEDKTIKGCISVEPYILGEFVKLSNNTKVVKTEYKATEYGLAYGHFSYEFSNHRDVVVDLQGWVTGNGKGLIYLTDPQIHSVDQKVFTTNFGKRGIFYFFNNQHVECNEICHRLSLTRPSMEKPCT

With `COc1ccc(C(C)(C)c2csc(NC(=O)c3ccc(NC4CCN(C)CC4)cc3)n2)cc1` [Example B028, N-(4-(2-(4-methoxyphenyl)propan-2-yl)thiazol-2-yl)-4-((1-methylpiperidin-4-yl)amino)benzamide], the pIC50 (in general, the negative decadic logarithm of the IC50, by convention in mol/L) under setting [1] is 6.57.
`COc1ccc(C(C)(C)c2csc(NC(=O)c3ccc(NCCN)cc3)n2)cc1` [Example B033, 4-((2-aminoethyl)amino)-N-(4-(2-(4-methoxyphenyl)propan-2-yl)thiazol-2-yl)benzamide] showed a pIC50 under setting [1] of 6.61.
As to `CCOc1ccc(C(C)(C)c2csc(NC(=O)NCc3ccc(N4CCNCC4)cc3)n2)cc1` [Example A059, 1-(4-(2-(4-ethoxyphenyl)propan-2-yl)thiazol-2-yl)-3-(4-(piperazin-1-yl)benzyl)urea], the pIC50 is 6.57.
In turn, `COc1ccc(C(C)(C)c2csc(NC(=O)c3cccc(CN4CCNCC4)c3)n2)cc1` [Example B005, N-(4-(2-(4-methoxyphenyl)propan-2-yl)thiazol-2-yl)-3-(piperazin-1-ylmethyl)benzamide] gave a pIC50 under setting [1] of 6.67.
Take `COc1ccc(C(C)(C)c2cnc(NC(=O)c3ccc(N4CCNCC4)c(F)c3)s2)cc1` [Example B038, 3-fluoro-N-(5-(2-(4-methoxyphenyl)propan-2-yl)thiazol-2-yl)-4-(piperazin-1-yl)benzamide]: the pIC50 under setting [1] was 6.67.
The molecule `CC(C)(c1ccc(Cl)cc1)c1csc(NC(=O)NCc2cnc(N3CCC(N)C3)nc2)n1` (centres unmarked) [Example A068, 1-((2-(3-aminopyrrolidin-1-yl)pyrimidin-5-yl)methyl)-3-(4-(2-(4-chlorophenyl)propan-2-yl)thiazol-2-yl)urea] showed a pIC50 of 6.57.
`COc1ccc(C(C)(C)c2csc(NC(=O)c3ccc(OCCN4CCNCC4)cc3)n2)cc1` [Example B024, N-(4-(2-(4-methoxyphenyl)propan-2-yl)thiazol-2-yl)-4-(2-(piperazin-1-yl)ethoxy)benzamide]: under setting [1], the pIC50 is 6.94.
For `C#CC(CC)(c1ccc(Br)cc1)c1csc(NC(C)=O)n1` (centres unmarked) [Example D008, N-(4-(3-(4-bromophenyl)pent-1-yn-3-yl)thiazol-2-yl)acetamide], the pIC50 under setting [1] is 6.84.
Under setting [1], `COc1ccc(C(C)(C)c2csc(NC(=O)c3ccc(N4CCNCC4C)cc3)n2)cc1` (centres unmarked) [Example B014] had a pIC50 of 6.52.
With `C#CC(C)(c1ccc(F)cc1)c1csc(NC(=O)c2c(F)cc(-c3cnc(CN)cn3)cc2F)n1` (centres unmarked) [Example B104, 4-(5-(aminomethyl)pyrazin-2-yl)-2,6-difluoro-N-(4-(2-(4-fluorophenyl)but-3-yn-2-yl)thiazol-2-yl)benzamide], the pIC50 under setting [1] was 5.83.
`C#C[C@@](C)(c1ccc(Cl)cc1)c1nc(NC(=O)c2c(F)cc(N3CCNCC3)cc2F)sc1Cl` [Example C020, (S)-N-(5-chloro-4-(2-(4-chlorophenyl)but-3-yn-2-yl)thiazol-2-yl)-2,6-difluoro-4-(piperazin-1-yl)benzamide]: the pIC50 under setting [1] is 7.06.
Molecule `C#CC(C)(c1ccc(Cl)cc1)c1csc(NC(=O)c2c(Cl)cc(N3CCNCC3)cc2Cl)n1` (centres unmarked) [Example B096, 2,6-dichloro-N-(4-(2-(4-chlorophenyl)but-3-yn-2-yl)thiazol-2-yl)-4-(piperazin-1-yl)benzamide] showed a pIC50 under setting [1] of 6.51.
In turn, `C#CC(C)(c1ccc(F)cc1)c1csc(NC(=O)c2c(F)cc(N3CCNC(CO)C3)cc2F)n1` (centres unmarked) [Example B082, 2,6-difluoro-N-(4-(2-(4-fluorophenyl)but-3-yn-2-yl)thiazol-2-yl)-4-(3-(hydroxymethyl)piperazin-1-yl)benzamide] had a pIC50 under setting [1] of 7.60.
As for `C#CC(C)(c1ccc(Cl)cc1)c1csc(NC(=O)c2ccc(N3CCNCC3)cc2F)n1` (centres unmarked) [Example B065, N-(4-(2-(4-chlorophenyl)but-3-yn-2-yl)thiazol-2-yl)-2-fluoro-4-(piperazin-1-yl)benzamide], under setting [1], the pIC50 was 6.67.
Turning to `COc1ccc(C(C)(C)c2csc(NC(=O)c3ccc(N4CCC(N(C)C)C4)cc3)n2)cc1` (centres unmarked) [Example B027, 4-(3-(dimethylamino)pyrrolidin-1-yl)-N-(4-(2-(4-methoxyphenyl)propan-2-yl)thiazol-2-yl)benzamide], the pIC50 under setting [1] was 6.66.
On to `COC[C@](C)(c1ccccc1)c1csc(NC(=O)c2c(F)cc(N3CCNCC3)cc2F)n1` [Example C017, (R)-2,6-difluoro-N-(4-(1-methoxy-2-phenylpropan-2-yl)thiazol-2-yl)-4-(piperazin-1-yl)benzamide], for which the pIC50 under setting [1] was 7.17.
The same measure, in the same setting: next, `COC[C@@](C)(c1ccc(Cl)cc1)c1csc(NC(=O)c2c(F)cc(N3CCNCC3)cc2F)n1` [Example C025, (S)-N-(4-(2-(4-chlorophenyl)-1-methoxypropan-2-yl)thiazol-2-yl)-2,6-difluoro-4-(piperazin-1-yl)benzamide]: 8.10.
Molecule `COc1ccc(C(C)(C)c2csc(NC(=O)NCc3cccc(N4CCNCC4)n3)n2)cc1` [Example A043, 1-(4-(2-(4-methoxyphenyl)propan-2-yl)thiazol-2-yl)-3-((6-(piperazin-1-yl)pyridin-2-yl)methyl)urea] gave a pIC50 of 6.78.
As to `O=C(Nc1nc(C2(c3ccc(Br)cc3)CCCC2)cs1)c1c(F)cc(N2CCNCC2)cc1F` [Example C006, N-(4-(1-(4-bromophenyl)cyclopentyl)thiazol-2-yl)-2,6-difluoro-4-(piperazin-1-yl)benzamide], the pIC50 under setting [1] was 7.37.
The same measure, in the same setting: next, `COCC(C)(c1ccc(OC)cc1)c1csc(NC(=O)c2c(F)cc(N3CCNCC3)cc2F)n1` (centres unmarked) [Example C021, 2,6-difluoro-N-(4-(1-methoxy-2-(4-methoxyphenyl)propan-2-yl)thiazol-2-yl)-4-(piperazin-1-yl)benzamide]: 7.36; `COc1ccc(C(C)(C)c2csc(NC(=O)c3cccc(CN4CCN(CCO)CC4)c3)n2)cc1` [Example B018, 3-((4-(2-hydroxyethyl)piperazin-1-yl)methyl)-N-(4-(2-(4-methoxyphenyl)propan-2-yl)thiazol-2-yl)benzamide]: 6.73.
On the same count and under the same terms, then `COc1ccc(C(C)(C)c2csc(NC(=O)c3cccc(OCCCN4CCNCC4)c3)n2)cc1` [Example B023, N-(4-(2-(4-methoxyphenyl)propan-2-yl)thiazol-2-yl)-3-(3-(piperazin-1-yl)propoxy)benzamide], with 6.82; and `CC(C)(c1ccc(Br)cc1)c1csc(NC(=O)NCc2cc(F)c(N3CCNCC3)c(F)c2)n1` [Example B037, 1-(4-(2-(4-bromophenyl)propan-2-yl)thiazol-2-yl)-3-(3,5-difluoro-4-(piperazin-1-yl)benzyl)urea], with 7.64; and `Cc1ccc(C(C)(C)c2csc(NC(=O)c3ccc(CN4CCN(CCO)CC4)nc3)n2)cc1` [Example B059, 6-((4-(2-hydroxyethyl)piperazin-1-yl)methyl)-N-(4-(2-(p-tolyl)propan-2-yl)thiazol-2-yl)nicotinamide], with 6.80.
On the same count and under the same terms, then `C#C[C@@](C)(c1ccc(OC)cc1)c1csc(NC(=O)c2c(F)cc(N3CCNCC3)cc2F)n1` (stereo in doubt) [Example C036, 2,6-difluoro-N-[4-[1-(4-methoxyphenyl)-1-methyl-prop-2-ynyl]thiazol-2-yl]-4-piperazin-1-yl-benzamide], with 7.17.
Take `COCC(C)(c1ccc(Cl)cc1)c1csc(NC(=O)c2c(F)cc(N3CCNCC3)cc2F)n1` (centres unmarked) [Example C029, N-(4-(2-(4-chlorophenyl)-1-methoxypropan-2-yl)thiazol-2-yl)-2,6-difluoro-4-(piperazin-1-yl)benzamide]: under setting [1], the pIC50 was 6.89.
Take `CC(C)(c1ccc(Br)cc1)c1csc(NC(=O)c2ccc(CN3CCN(CCO)CC3)nc2)n1` [Example B051, N-(4-(2-(4-bromophenyl)propan-2-yl)thiazol-2-yl)-6-((4-(2-hydroxyethyl)piperazin-1-yl)methyl)nicotinamide]: under setting [1], the pIC50 is 7.21.
Take `C#C[C@](C)(c1ccc(F)cc1)c1csc(NC(=O)c2ccc(N3CCNCC3CO)cc2)n1` (stereo in doubt) [Example B072, N-[4-[1-(4-fluorophenyl)-1-methyl-prop-2-ynyl]thiazol-2-yl]-4-[2-(hydroxymethyl)piperazin-1-yl]benzamide]: the pIC50 under setting [1] is 6.59.
The same measure, in the same setting: next, `COCC(C)(c1ccc(Br)cc1)c1csc(NC(=O)c2c(F)cc(N3CCNCC3)cc2F)n1` (centres unmarked) [Example C027, N-(4-(2-(4-bromophenyl)-1-methoxypropan-2-yl)thiazol-2-yl)-2,6-difluoro-4-(piperazin-1-yl)benzamide]: 7.00.

(Values after patent publication US20240109853A1 (Shanghai Yao Yuan Biotechnology Co., Ltd., priority 2020, published 2024).)
